Source: patent US20140296212A1, “SUBSTITUTED PHENOXYPROPYLCYCLOAMINE DERIVATIVES AS HISTAMINE-3 (H3) RECEPTOR LIGANDS” (CEPHALON, INC., priority 2009, published 2014)
Where a name gives a salt, the structure may show the parent alone.

Tests used:
[1] = biological target: T1, human H3 receptor (Homo sapiens, UniProt Q9Y5N1); assay: Human H3 radioligand binding ([3H]-N-alpha-methylhistamine, SPA); details: membranes of CHO cells expressing human H3
T1 construct: expressed in transfected cells
Procedure: Cell pellets were resuspended in 5 mM Tris-HCl, pH 7.5 with 5 nM EDTA and a cocktail of protease inhibitors (Complete Protease Inhibitor Tablets, Roche Diagnostics). Cells were disrupted using a polytron cell homogenizer and the suspension was centrifuged at 1000×g for 10 minutes at 4° C. The pellet was discarded and the supernatant centrifuged at 40,000×g for 30 min at 4° C. This membrane pellet was washed in membrane buffer containing 50 mM Tris-HCl, pH 7.5 with 0.6 mM EDTA, 5 mM MgCl2 and protease inhibitors, recentrifuged as above and the final pellet resuspended in membrane buffer plus 250 mM sucrose and frozen at −80° C.
(§1) Membranes were resuspended in 50 mM Tris HCl (pH 7.4), 5 mM MgCl2, 0.1% BSA. The membrane suspensions (10 μg protein per well) were incubated in a 96 well microtiter plate with [^3H]-N-alpha-methylhistamine (approximately 1 nM final concentration), test compounds at various concentrations (0.01 nM-30 μM) and scintillation proximity beads (Perkin Elmer, FlashBlueGPCR Scintillating Beads) in a final volume of 80 μl for 4 hours at room temperature, protected from light. Non-specific binding was determined in the presence of 10 μM clobenpropit. Radioligand bound to receptor, and therefore in proximity to the scintillation beads, was measured using a MicroBeta scintillation counter.

[2] = biological target: T2, rat histamine H3 receptor (Rattus norvegicus, UniProt Q9QYN8); assay: Rat H3 radioligand binding ([3H]-N-alpha-methylhistamine, SPA); details: membranes of CHO-A3 cells expressing rat H3; [3H]-N-alpha-methylhistamine; read-out: Rat H3 Ki
T2 construct: encoding the entire 445-amino-acid rat histamine H3 receptor; expressed in transfected cells
Description: The rat H3 receptor cDNA was PCR amplified from reverse-transcribed RNA pooled from rat thalamus, hypothalamus, striatum and prefrontal cortex with a sequence corresponding to by #338-1672 of Genbank file #NM_053506, encoding the entire 445-amino-acid rat histamine H3 receptor. This was engineered into the pIRES-neo3 mammalian expression vector, which was stably transfected into the CHO-A3 cell line (Euroscreen, Belgium), followed by clonal selection by limiting dilution. Cells were harvested and cell pellets were frozen (−80° C.). Cell pellets were resuspended in 5 mM Tris-HCl, pH 7.5 with 5 nM EDTA and a cocktail of protease inhibitors (Complete Protease Inhibitor Tablets, Roche Diagnostics). Cells were disrupted using a polytron cell homogenizer and the suspension was centrifuged at 1000×g for 10 minutes at 4° C. The pellet was discarded and the supernatant centrifuged at 40,000×g for 30 min at 4° C. This membrane pellet was washed in membrane buffer containing 50 mM Tris-HCl, pH 7.5 with 0.6 mM EDTA, 5 mM MgCl2 and protease inhibitors, recentrifuged as above and the final pellet resuspended in membrane buffer plus 250 mM sucrose and frozen at −80° C.
as §1

T2 sequence (Q9QYN8 whole entry): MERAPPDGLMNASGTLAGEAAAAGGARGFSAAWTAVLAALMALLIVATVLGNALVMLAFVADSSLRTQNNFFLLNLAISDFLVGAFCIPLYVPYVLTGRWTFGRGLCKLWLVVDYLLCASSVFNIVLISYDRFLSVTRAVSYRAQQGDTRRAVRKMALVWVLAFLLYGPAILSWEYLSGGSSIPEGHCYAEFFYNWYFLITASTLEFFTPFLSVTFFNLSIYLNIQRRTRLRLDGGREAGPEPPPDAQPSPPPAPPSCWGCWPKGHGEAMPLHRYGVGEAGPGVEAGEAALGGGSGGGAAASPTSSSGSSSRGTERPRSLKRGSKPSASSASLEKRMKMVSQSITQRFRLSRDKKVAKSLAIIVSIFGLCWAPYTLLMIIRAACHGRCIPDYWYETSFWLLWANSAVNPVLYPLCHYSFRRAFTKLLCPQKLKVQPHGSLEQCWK
T1 sequence (Q9Y5N1 whole entry): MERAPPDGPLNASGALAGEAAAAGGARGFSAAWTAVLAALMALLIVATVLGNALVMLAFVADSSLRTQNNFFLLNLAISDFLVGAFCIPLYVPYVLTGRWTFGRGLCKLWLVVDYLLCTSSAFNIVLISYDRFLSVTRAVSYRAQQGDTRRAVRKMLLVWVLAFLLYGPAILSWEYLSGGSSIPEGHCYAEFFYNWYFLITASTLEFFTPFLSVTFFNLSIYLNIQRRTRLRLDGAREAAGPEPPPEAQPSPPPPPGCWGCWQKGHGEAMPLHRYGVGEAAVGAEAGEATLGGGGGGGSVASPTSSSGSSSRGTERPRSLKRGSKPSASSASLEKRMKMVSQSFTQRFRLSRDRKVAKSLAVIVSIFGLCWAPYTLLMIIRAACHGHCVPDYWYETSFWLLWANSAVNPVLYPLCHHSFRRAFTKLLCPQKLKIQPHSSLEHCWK

Row | SMILES | Ki [1] | Ki [2] | melting point
1 | C[C@@H]1CCCN1CCCOc1ccc(C(=O)CN2CCN(c3ccccc3)CC2)cc1 [Example 91, 1-{4-[3-((R)-2-Methyl-pyrrolidin-1-yl)-propoxy]-phenyl}-2-(4-phenyl-piperazin-1-yl)-ethanone] | 0.0001 to 0.1 µM | 0.0001 to 0.1 µM | 145 to 150 °C
2 | Cc1cc(C(=O)CN2CCN(c3ncccn3)CC2)cc(C)c1OCCCN1CCC[C@H]1C [Example 104, 1-{3,5-Dimethyl-4-[3-((R)-2-methyl-pyrrolidin-1-yl)-propoxy]-phenyl}-2-(4-pyrimidin-2-yl-piperazin-1-yl)-ethanone] | 0.101 to 0.5 µM | 0.501 to 1 µM | 155 to 160 °C (dec.)
3 | C[C@@H]1CCCN1CCCOc1ccc(C(=O)CN2CCN(C)C(=O)C2)cc1 [Example 155, 1-Methyl-4-(2-{4-[3-((R)-2-methyl-pyrrolidin-1-yl)-propoxy]-phenyl}-2-oxo-ethyl)-piperazin-2-one] | 0.0001 to 0.1 µM | 0.0001 to 0.1 µM | 115 to 120 °C
4 | C[C@@H]1CCCN1CCCOc1ccc(C(=O)CN2CCN(C(=O)N3CCCC3)CC2)cc1 [Example 75, 1-{4-[3-((R)-2-Methyl-pyrrolidin-1-yl)-propoxy]-phenyl}-2-[4-(pyrrolidine-1-carbonyl)-piperazin-1-yl]-ethanone] | 0.0001 to 0.1 µM | 0.0001 to 0.1 µM | 118 to 130 °C
5 | CC(=O)N1CCN(CCCOc2ccc(C(=O)CN3CCOCC3)cc2)CC1 [Example 49, 1-{4-[3-(4-Acetyl-piperazin-1-yl)-propoxy]-phenyl}-2-morpholin-4-yl-ethanone] | > 1 µM |  | 247 °C
6 | CC(C)C(=O)N1CCN(CC(=O)c2ccc(OCCCN3CCC[C@H]3C)c(Cl)c2)CC1 [Example 118, 1-[4-(2-{3-Chloro-4-[3-((R)-2-methyl-pyrrolidin-1-yl)-propoxy]-phenyl}-2-oxo-ethyl)-piperazin-1-yl]-2-methyl-propan-1-one] | 0.0001 to 0.1 µM | 0.0001 to 0.1 µM | 140 °C (dec.)
7 | COC(=O)N1CCN(CC(=O)c2ccc(OCCCN3CCC[C@H]3C)c(F)c2)CC1 [Example 127, 4-(2-{3-Fluoro-4-[3-((R)-2-methyl-pyrrolidin-1-yl)-propoxy]-phenyl}-2-oxo-ethyl)-piperazine-1-carboxylic acid methyl ester] | 0.0001 to 0.1 µM | 0.0001 to 0.1 µM | 236 °C
8 | COC[C@@H]1CCCN1CCCOc1ccc(C(=O)CN2CCOCC2)cc1 [Example 76, 1-{4-[3-((S)-2-Methoxymethyl-pyrrolidin-1-yl)-propoxy]-phenyl}-2-morpholin-4-yl-ethanone] | > 1 µM | > 1 µM | 74 to 76 °C
9 | COC(=O)N1CCN(CC(=O)c2ccc(OCCCN3CCC[C@H]3C)c(Cl)c2)CC1 [Example 132, 4-(2-{3-Chloro-4-[3-((R)-2-methyl-pyrrolidin-1-yl)-propoxy]-phenyl}-2-oxo-ethyl)-piperazine-1-carboxylic acid methyl ester] | 0.0001 to 0.1 µM | 0.101 to 0.5 µM | 122 to 124 °C
10 | CC(C(=O)c1ccc(OCCCN2CCC[C@@H]2C)cc1)N1CCCCC1 (stereo partly drawn) [Example 20, 1-{4-[3-((S)-2-Methyl-pyrrolidin-1-yl)-propoxy]-phenyl}-2-piperidin-1-yl-propan-1-one] | 0.0001 to 0.1 µM |  | > 230 °C
11 | CC(C(=O)c1ccc(OCCCN2CCOCC2)cc1)N1CCOCC1 (centres unmarked) [Example 48, 2-Morpholin-4-yl-1-[4-(3-morpholin-4-yl-propoxy)-phenyl]-propan-1-one] | > 1 µM |  | 258 °C
12 | O=C(CN1CCOCC1)c1ccc(OCCCN2CCN3CCC[C@H]3C2)cc1 [Example 51, 1-{4-[(S)-3-(Hexahydro-pyrrolo[1,2-a]pyrazin-2-yl)-propoxy)-phenyl}-2-morpholin-4-yl-ethanone] | > 1 µM |  | 238 °C
13 | CC(C(=O)c1ccc(OCCCN2CCCCC2)cc1)N1CCCCC1 (centres unmarked) [Example 19, 2-Piperidin-1-yl-1-[4-(3-piperidin-1-yl-propoxy)-phenyl]-propan-1-one] | 0.0001 to 0.1 µM |  | > 240 °C
14 | C[C@@H]1CCCN1CCCOc1ccc(C(=O)CN2CCN(C(=O)c3ccccc3)CC2)c(F)c1 (as salt: fumaric acid salt) [Example 103, 2-(4-Benzoyl-piperazin-1-yl)-1-{2-fluoro-4-[3-((R)-2-methyl-pyrrolidin-1-yl)-propoxy]-phenyl}-ethanone] |  |  | 98 to 101 °C
15 | CC(C)N1CCC(Oc2ccc(C(=O)CN3CCOCC3)cc2)CC1 (as salt: hydrochloride) [Example 45, 1-[4-(1-Isopropyl-piperidin-4-yloxy)-phenyl]-2-morpholin-4-yl-ethanone] |  |  | 296 to 298 °C
16 | O=C(CN1CCOCC1)c1ccc(OCCCN2Cc3ccccc3C2)cc1 [Example 46, 1-{4-[3-(1,3-Dihydro-isoindol-2-yl)-propoxy)-phenyl}-2-morpholin-4-yl-ethanone] | > 1 µM |  | 139 to 139.5 °C
17 | C[C@@H]1CCCN1CCCOc1ccc(C(=O)C(C)(C)N2CCOCC2)cc1 (as salt: fumaric acid salt) [Example 54] |  |  | 45 to 50 °C
18 | CC(C(=O)c1ccc(OCCCN2CCC(F)(F)C2)cc1)N1CCOCC1 (centres unmarked) [Example 56, 1-{4-[3-(3,3-Difluoro-pyrrolidin-1-yl)-propoxy]-phenyl}-2-morpholin-4-yl-propan-1-one] | > 1 µM |  | 254 °C

The remaining lines, values ahead:

Row | Ki [1] | Ki [2] | melting point | SMILES
19 | 0.0001 to 0.1 µM | 0.101 to 0.5 µM | 79 to 85 °C | Cc1cc(C(=O)CN2CCNC(=O)C2)ccc1OCCCN1CCC[C@H]1C [Example 150, 4-(2-{3-Methyl-4-[3-((R)-2-methyl-pyrrolidin-1-yl)-propoxy]-phenyl}-2-oxo-ethyl)-piperazin-2-one]
20 | 0.101 to 0.5 µM | 0.501 to 1 µM | 125 to 135 °C | C[C@@H]1CCCN1CCCOc1cccc(C(=O)CN2CCN(C(=O)c3ccccc3)CC2)c1 [Example 153, 2-(4-Benzoyl-piperazin-1-yl)-1-{3-[3-((R)-2-methyl-pyrrolidin-1-yl)-propoxy]-phenyl}-ethanone]
21 | 0.0001 to 0.1 µM | 0.0001 to 0.1 µM | 96 °C | C[C@@H]1CCCN1CCCOc1ccc(C(=O)CN2CCN(C(=O)c3ccccc3)CC2)cc1F [Example 120, 2-(4-Benzoyl-piperazin-1-yl)-1-{3-fluoro-4-[3-((R)-2-methyl-pyrrolidin-1-yl)-propoxy]-phenyl}-ethanone]
22 | 0.0001 to 0.1 µM | 0.0001 to 0.1 µM | 113 to 128 °C | CC(=O)N1CCN(CC(=O)c2ccc(OCCCN3CCC[C@H]3C)c(Cl)c2)CC1 [Example 135, 2-(4-Acetyl-piperazin-1-yl)-1-{3-chloro-4-[3-((R)-2-methyl-pyrrolidin-1-yl)-propoxy]-phenyl}-ethanone]
23 | > 1 µM |  | 240 °C | CC(=O)N1CCN(CCCOc2ccc(C(=O)C(C)N3CCOCC3)cc2)CC1 (centres unmarked) [Example 50, 1-{4-[3-(4-Acetyl-piperazin-1-yl)-propoxy]-phenyl}-2-morpholin-4-yl-propan-1-one]
24 | 0.0001 to 0.1 µM | 0.0001 to 0.1 µM | 130 to 135 °C | C[C@@H]1CCCN1CCCOc1ccc(C(=O)CN2CCN(C(=O)c3ccco3)CC2)cc1 [Example 81, 2-[4-(Furan-2-carbonyl)-piperazin-1-yl]-1-{4-[3-((R)-2-methyl-pyrrolidin-1-yl)-propoxy]-phenyl}-ethanone]
25 | 0.0001 to 0.1 µM | 0.0001 to 0.1 µM | 231.5 to 235 °C | Cc1cc(C(=O)CN2CCN(c3ncccn3)CC2)ccc1OCCCN1CCC[C@H]1C [Example 130, 1-{3-Methyl-4-[3-((R)-2-methyl-pyrrolidin-1-yl)-propoxy]-phenyl}-2-(4-pyrimidin-2-yl-piperazin-1-yl)-ethanone]
26 |  |  | 222 to 224 °C | CC(C)OC(=O)N1CCN(CC(=O)c2ccc(OCCCN3CCC[C@H]3C)cc2)CC1 [Example 158, 4-(2-{4-[3-((R)-2-Methyl-pyrrolidin-1-yl)-propoxy]-phenyl}-2-oxo-ethyl)-piperazine-1-carboxylic acid isopropyl ester]
